Test results taken from patent publication US20070015661A1, “Herbicide/safener combination” (Bayer CropScience GmbH, priority 2005, published 2007).

Columns and labels:
[1] = test system: Sinapis alba, Echinochloa crus-galli, Lolium multiflorum, Chrysanthemum segetum, Setaria viridis, Abutilon theophrasti, Amaranthus retroflexus, Panicum …; assay: Post-emergence action against weeds (greenhouse pot test, visual scoring); type: in vivo, monocotyledonous and dicotyledonous weeds; conditions: herbicide/safener combination, above all with safeners II-1, II-9, III-1, b-11, b-14, IX-A3; post-emergence method, three-leaf stage; 500 g or less of herbicide (A) per hectare; three to four weeks
Description: Seeds or rhizome pieces of monocotyledonous and dicotyledonous weeds were placed into sandy loam soil in plastic pots, covered with soil and grown in a greenhouse under good growth conditions. Three weeks after sowing, the test plants were treated at the three-leaf stage. The compounds according to the invention, formulated as wettable powders or as emulsion concentrates, were sprayed onto the green parts of the plants at various dosages using a water application rate of 300 to 800 l/ha (converted). The test plants were stood in the greenhouse under optimum growth conditions for about three to four weeks, and the action of the preparations was then scored visually in comparison to untreated controls. Post-emergence, too, the herbicide/safener combinations according to the invention have good herbicidal activity against a broad spectrum of economically important weed grasses and broad-leaved weeds.

[2] = test system: cotton, oilseed rape, sugar beet and Gramineae crops such as barley, wheat, rye, millet, corn or rice; assay: Compatibility with crop plants (greenhouse, visual scoring); type: in vivo; conditions: herbicide/safener combination, above all with safeners II-1, II-9, III-1, b-11, b-14, IX-A3; pre-emergence method or post-emergence method; four to five weeks after application
From the text: In further greenhouse trials, seeds of a relatively large number of crop plants and weeds were placed into sandy loam soil and covered with soil. Some of the pots were immediately treated as described in Section 1, the others were placed in a greenhouse until the plants had developed two to three true leaves and were then sprayed with various dosages of the herbicide/safener combinations according to the invention, as described in Section 2.

[3] = test system: Sinapis alba, Chrysanthemum segetum, Avena sativa, Stellaria media, Echinochloa crus-galli, Lolium multiflorum, Setaria viridis, Abutilon theophrasti …; assay: Pre-emergence action against weeds (greenhouse pot test, optical scoring); type: in vivo, monocotyledonous and dicotyledonous weed plants; conditions: herbicide/safener combination, above all with safeners II-1, II-9, III-1, b-11, b-14, IX-A3; pre-emergence method; 500 g or less of herbicide (A) per hectare; 3 to 4 weeks
From the text: Seeds or rhizome pieces of monocotyledonous and dicotyledonous weed plants were placed in sandy loam soil in cardboard pots and covered with soil. The active compounds (A) and (B), formulated in the form of wettable powders or emulsion concentrates, were then applied to the surface of the covering soil in various dosages as aqueous suspensions or emulsions using a water application rate of 300 to 800 l/ha (converted).
After the treatment, the pots were placed in a greenhouse and kept under good growth conditions for the weeds. Optical scoring of the damage to the plants or emerged plants was carried out after emergence of the test plants after a trial period of 3 to 4 weeks, in comparison to untreated controls. As shown by the results, the tested herbicide/safener combinations have good herbicidal pre-emergence activity against a broad spectrum of weed grasses and broad-leaved weeds.

SMILES	herbicidal activity against harmful plants (visual scoring vs untreated controls) [1]	damage to crop plants (visual scoring) [2]	herbicidal activity against harmful plants (optical scoring of damage vs untreated controls) [3]
CC1(C)CC(S(=O)(=O)C(Cl)c2ccccc2)=NO1 (stereo not drawn) [I-1.1]	very good herbicidal activity	did not cause any damage	very good herbicidal activity
CC1(C)CC(S(=O)(=O)C(Cl)c2cc(F)ccc2F)=NO1 (stereo not drawn) [I-2.1]	very good herbicidal activity	did not cause any damage	very good herbicidal activity
CCC1(C)CC(S(=O)(=O)C(Cl)c2cc(F)ccc2F)=NO1 (stereo not drawn) [I-2.2]	very good herbicidal activity	did not cause any damage	very good herbicidal activity
CC1(C)CC(S(=O)(=O)C(Cl)c2c(F)cccc2F)=NO1 (stereo not drawn) [I-3.1]	very good herbicidal activity	did not cause any damage	very good herbicidal activity
CCC1(C)CC(S(=O)(=O)C(Cl)c2c(F)cccc2F)=NO1 (stereo not drawn) [I-3.2]	very good herbicidal activity	did not cause any damage	very good herbicidal activity
CC1(C)CC(S(=O)(=O)C(Cl)c2cc(C(F)(F)F)ccc2F)=NO1 (stereo not drawn) [I-4.1]	very good herbicidal activity	did not cause any damage	very good herbicidal activity
CC1(C)CC(S(=O)(=O)C(Cl)c2c(F)cccc2Cl)=NO1 (stereo not drawn) [I-5.1]	very good herbicidal activity	did not cause any damage	very good herbicidal activity
CC1(C)CC(S(=O)(=O)C(Cl)c2ccccc2Cl)=NO1 (stereo not drawn) [I-6.1]	very good herbicidal activity	did not cause any damage	very good herbicidal activity
CC1(C)CC(S(=O)(=O)C(Cl)c2ccccc2OC(F)(F)F)=NO1 (stereo not drawn) [I-10.1]	very good herbicidal activity	did not cause any damage	very good herbicidal activity
CCC1(C)CC(S(=O)(=O)C(Cl)c2cc(C(F)(F)F)ccc2Cl)=NO1 (stereo not drawn) [I-98.2]	very good herbicidal activity	did not cause any damage	very good herbicidal activity
CC1(C)CC(S(=O)(=O)C(Cl)c2c(Cl)cccc2Cl)=NO1 (stereo not drawn) [I-109.1]	very good herbicidal activity	did not cause any damage	very good herbicidal activity
CC1(C)CC(S(=O)(=O)C(Cl)c2c(F)cccc2C(F)(F)F)=NO1 (stereo not drawn) [I-117.1]	very good herbicidal activity	did not cause any damage	very good herbicidal activity
CC1(C)CC(S(=O)(=O)C(Cl)c2cc(F)cc(F)c2F)=NO1 (stereo not drawn) [I-129.1]	very good herbicidal activity	did not cause any damage	very good herbicidal activity
Cn1nc(C(F)(F)F)c(C(Cl)S(=O)(=O)C2=NOC(C)(C)C2)c1OC(F)F (stereo not drawn) [I-206.1]	very good herbicidal activity	did not cause any damage	very good herbicidal activity
Cn1nc(C(F)(F)F)c(C(Cl)S(=O)(=O)C2=NOC(C)(C)C2)c1Cl (stereo not drawn) [I-216.1]	very good herbicidal activity	did not cause any damage	very good herbicidal activity
CCC1(C)CC(S(=O)(=O)C(Cl)c2c(C(F)(F)F)nn(C)c2Cl)=NO1 (stereo not drawn) [I-216.2]	very good herbicidal activity	did not cause any damage	very good herbicidal activity
CC1(C)CC(S(=O)(=O)C(F)c2cc(F)ccc2F)=NO1 (stereo not drawn) [I-249.1]	very good herbicidal activity	did not cause any damage	very good herbicidal activity
CC1(C)CC(S(=O)(=O)C(F)c2c(F)cccc2F)=NO1 (stereo not drawn) [I-250.1]	very good herbicidal activity	did not cause any damage	very good herbicidal activity
Cn1nc(C(F)(F)F)c(C(F)S(=O)(=O)C2=NOC(C)(C)C2)c1OC(F)F (stereo not drawn) [I-260.1]	very good herbicidal activity	did not cause any damage	very good herbicidal activity
Cn1nc(C(F)(F)F)c(C(Br)S(=O)(=O)C2=NOC(C)(C)C2)c1OC(F)F (stereo not drawn) [I-275.1]	very good herbicidal activity	did not cause any damage	very good herbicidal activity
Cn1nc(C(F)(F)F)c(C(Cl)[S+]([O-])C2=NOC(C)(C)C2)c1OC(F)F (stereo not drawn) [I-289.1]	very good herbicidal activity	did not cause any damage	very good herbicidal activity
